In one series the test system is MERS-COV. Format: cell-based. Conditions: plaque assay.
The test system of a further series is SARS-COV. Format: cell-based. Conditions: plaque assay, 24 hpi.
Another series relates to WT SARS-COV-2. Description: Golden Syrian hamster model of WT SARS-COV-2 infection. Conditions: 4 dpi. Format: in vivo.
In a further series the test system is plasma proteins. Conditions: over a wide range of blood concentrations; cited from earlier work.
The conditions of series [1]: in vivo; cited from earlier work.
The subject of another series is SARS-COV-2. Conditions: hES-CMs, 0.1 MOI, 24 hpi, 50 uM Propranolol.

We go through one molecule from patent US20250064758A1 (priority 2023, published 2025).

`CC(C)NCC(O)COc1cccc2ccccc12` (stereo not drawn) [Propranolol, 1-(isopropylamino)-3-(1-naphthyloxy)-2-propanol]: the “number of infectious viruses (viral plaques)” value in the series with MERS-COV and in the series with SARS-COV was “effectively reduced” each time. Besides, the “viral nucleocapsid protein expression in bronchiolar and alveolar epithelia” value in the series on WT SARS-COV-2 (hamster lung, immunofluorescence staining) is “significantly reduced”. The “WT SARS-COV-2 genome copies in lung tissues” value with WT SARS-COV-2 (hamster, 40 mg/kg intraperitoneal from 6 hpi, 4 doses, RT-qPCR, vs mock-treated, p<0.05) is on record as “decreased”. Besides, the “infectious virus titer in lung tissues” value with WT SARS-COV-2 (hamster, 40 mg/kg intraperitoneal from 6 hpi, 4 doses, plaque assay, vs mock-treated, p<0.01) was “decreased”. The “bound to plasma proteins” value in the series with plasma proteins is “more than 90%”. For the same molecule, the elimination half-life result in series [1] is “approximately 8 hours”. In the series with SARS-COV-2 (cell lysate), the “intracellular SARS-COV-2 viral load” value is listed as “remarkably diminished”. Also, in the series with SARS-COV-2 (cell supernatant), the “extracellular SARS-COV-2 viral load” value is recorded as “remarkably diminished”.
